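Five concentrations, 48 hours, 96-well plates. TGI: total growth inhibition.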
Tested on: SF-539 CNS
Assay: NCI-60 cell line screen, 48 h

With C=CCSc1nc2c(N)ncnc2n1C1OC(CO)C(O)C1O (stereo unspecified) the TGI was > 100 µM.

Tested on: SK-MEL-2 melanoma
Assay: NCI-60 cell line screen, 48 h

Point of comparison: C[n+]1cn(C2=C([O-])c3ccccc3C(=O)/C2=N\S(=O)(=O)c2ccccc2)c2ccccc21, TGI 44.1 µM. Against it:
- Cc1nn(C(=O)c2ccccc2O)c2c1C(c1ccccc1O)SC(N)=N2 (stereo unspecified) — not separable, > 10 µM
- O=C1NN=C2C=C(c3ccc(Cl)cc3)CC(c3cccc(Br)c3)C12 (stereo unspecified) — higher, > 100 µM
- C=CCSc1nc2c(N)ncnc2n1C1OC(CO)C(O)C1O (stereo unspecified) — higher, > 100 µM

Tested on: SK-MEL-28 melanoma
Assay: NCI-60 cell line screen, 48 h

C[n+]1cn(C2=C([O-])c3ccccc3C(=O)/C2=N\S(=O)(=O)c2ccccc2)c2ccccc21 and Cc1nn(C(=O)c2ccccc2O)c2c1C(c1ccccc1O)SC(N)=N2 (stereo unspecified) cannot be ordered by TGI: > 100 µM for the first, > 10 µM for the second.

COC(=O)C1(NC(=O)C(CC(=O)OCc2ccccc2)NC(=O)OCc2ccccc2)CCCCCCC1 (stereo unspecified) and C=CCSc1nc2c(N)ncnc2n1C1OC(CO)C(O)C1O (stereo unspecified) cannot be ordered by TGI: > 100 µM for the first, > 100 µM for the second.

Tested on: SK-MEL-5 melanoma
Assay: NCI-60 cell line screen, 48 h

Point of comparison: COC(=O)C1(NC(=O)C(CC(=O)OCc2ccccc2)NC(=O)OCc2ccccc2)CCCCCCC1 (stereo unspecified), TGI 29.4 µM. Against it:
- C[n+]1cn(C2=C([O-])c3ccccc3C(=O)/C2=N\S(=O)(=O)c2ccccc2)c2ccccc21 — higher, > 100 µM
- Cc1nn(C(=O)c2ccccc2O)c2c1C(c1ccccc1O)SC(N)=N2 (stereo unspecified) — not separable, > 10 µM
- O=C1NN=C2C=C(c3ccc(Cl)cc3)CC(c3cccc(Br)c3)C12 (stereo unspecified) — higher, > 100 µM
- C=CCSc1nc2c(N)ncnc2n1C1OC(CO)C(O)C1O (stereo unspecified) — higher, > 100 µM

Tested on: SK-OV-3 ovarian
Assay: NCI-60 cell line screen, 48 h

C[n+]1cn(C2=C([O-])c3ccccc3C(=O)/C2=N\S(=O)(=O)c2ccccc2)c2ccccc21 and Cc1nn(C(=O)c2ccccc2O)c2c1C(c1ccccc1O)SC(N)=N2 (stereo unspecified) cannot be ordered by TGI: > 100 µM for the first, > 10 µM for the second.

O=C1NN=C2C=C(c3ccc(Cl)cc3)CC(c3cccc(Br)c3)C12 (stereo unspecified) and COC(=O)C1(NC(=O)C(CC(=O)OCc2ccccc2)NC(=O)OCc2ccccc2)CCCCCCC1 (stereo unspecified) cannot be ordered by TGI: > 100 µM for the first, > 100 µM for the second.

C=CCSc1nc2c(N)ncnc2n1C1OC(CO)C(O)C1O (stereo unspecified) was tested, and the TGI was > 100 µM.

Tested on: SN12C renal
Assay: NCI-60 cell line screen, 48 h

C[n+]1cn(C2=C([O-])c3ccccc3C(=O)/C2=N\S(=O)(=O)c2ccccc2)c2ccccc21 and Cc1nn(C(=O)c2ccccc2O)c2c1C(c1ccccc1O)SC(N)=N2 (stereo unspecified) cannot be ordered by TGI: > 100 µM for the first, > 10 µM for the second.

O=C1NN=C2C=C(c3ccc(Cl)cc3)CC(c3cccc(Br)c3)C12 (stereo unspecified) and COC(=O)C1(NC(=O)C(CC(=O)OCc2ccccc2)NC(=O)OCc2ccccc2)CCCCCCC1 (stereo unspecified) cannot be ordered by TGI: > 100 µM for the first, > 100 µM for the second.

For C=CCSc1nc2c(N)ncnc2n1C1OC(CO)C(O)C1O (stereo unspecified), the TGI was > 100 µM.

Tested on: SNB-19 CNS
Assay: NCI-60 cell line screen, 48 h

Point of comparison: O=C1NN=C2C=C(c3ccc(Cl)cc3)CC(c3cccc(Br)c3)C12 (stereo unspecified), TGI 57.7 µM. Against it:
- C[n+]1cn(C2=C([O-])c3ccccc3C(=O)/C2=N\S(=O)(=O)c2ccccc2)c2ccccc21 — within 1.5-fold, 78.5 µM
- COC(=O)C1(NC(=O)C(CC(=O)OCc2ccccc2)NC(=O)OCc2ccccc2)CCCCCCC1 (stereo unspecified) — higher, > 100 µM
- C=CCSc1nc2c(N)ncnc2n1C1OC(CO)C(O)C1O (stereo unspecified) — higher, > 100 µM

Tested on: SNB-75 CNS
Assay: NCI-60 cell line screen, 48 h

C[n+]1cn(C2=C([O-])c3ccccc3C(=O)/C2=N\S(=O)(=O)c2ccccc2)c2ccccc21 and Cc1nn(C(=O)c2ccccc2O)c2c1C(c1ccccc1O)SC(N)=N2 (stereo unspecified) cannot be ordered by TGI: > 100 µM for the first, > 10 µM for the second.

O=C1NN=C2C=C(c3ccc(Cl)cc3)CC(c3cccc(Br)c3)C12 (stereo unspecified) and COC(=O)C1(NC(=O)C(CC(=O)OCc2ccccc2)NC(=O)OCc2ccccc2)CCCCCCC1 (stereo unspecified) cannot be ordered by TGI: > 100 µM for the first, > 100 µM for the second.

C=CCSc1nc2c(N)ncnc2n1C1OC(CO)C(O)C1O (stereo unspecified) was tested, and the TGI was > 100 µM.

Tested on: SR leukemia
Assay: NCI-60 cell line screen, 48 h

Point of comparison: Cc1nn(C(=O)c2ccccc2O)c2c1C(c1ccccc1O)SC(N)=N2 (stereo unspecified), TGI 5.4 µM. Against it:
- C[n+]1cn(C2=C([O-])c3ccccc3C(=O)/C2=N\S(=O)(=O)c2ccccc2)c2ccccc21 — higher, > 100 µM
- O=C1NN=C2C=C(c3ccc(Cl)cc3)CC(c3cccc(Br)c3)C12 (stereo unspecified) — higher, > 100 µM
- COC(=O)C1(NC(=O)C(CC(=O)OCc2ccccc2)NC(=O)OCc2ccccc2)CCCCCCC1 (stereo unspecified) — higher, > 100 µM
- C=CCSc1nc2c(N)ncnc2n1C1OC(CO)C(O)C1O (stereo unspecified) — higher, > 100 µM

Tested on: SW-620 colon
Assay: NCI-60 cell line screen, 48 h

C[n+]1cn(C2=C([O-])c3ccccc3C(=O)/C2=N\S(=O)(=O)c2ccccc2)c2ccccc21 and Cc1nn(C(=O)c2ccccc2O)c2c1C(c1ccccc1O)SC(N)=N2 (stereo unspecified) cannot be ordered by TGI: > 100 µM for the first, > 10 µM for the second.

O=C1NN=C2C=C(c3ccc(Cl)cc3)CC(c3cccc(Br)c3)C12 (stereo unspecified) and COC(=O)C1(NC(=O)C(CC(=O)OCc2ccccc2)NC(=O)OCc2ccccc2)CCCCCCC1 (stereo unspecified) cannot be ordered by TGI: > 100 µM for the first, > 100 µM for the second.

With C=CCSc1nc2c(N)ncnc2n1C1OC(CO)C(O)C1O (stereo unspecified) the TGI was > 100 µM.

Tested on: T-47D breast
Assay: NCI-60 cell line screen, 48 h

Point of comparison: COC(=O)C1(NC(=O)C(CC(=O)OCc2ccccc2)NC(=O)OCc2ccccc2)CCCCCCC1 (stereo unspecified), TGI 94.2 µM. Against it:
- C[n+]1cn(C2=C([O-])c3ccccc3C(=O)/C2=N\S(=O)(=O)c2ccccc2)c2ccccc21 — higher, > 100 µM
- Cc1nn(C(=O)c2ccccc2O)c2c1C(c1ccccc1O)SC(N)=N2 (stereo unspecified) — not separable, > 10 µM
- O=C1NN=C2C=C(c3ccc(Cl)cc3)CC(c3cccc(Br)c3)C12 (stereo unspecified) — higher, > 100 µM
- C=CCSc1nc2c(N)ncnc2n1C1OC(CO)C(O)C1O (stereo unspecified) — higher, > 100 µM

Tested on: TK-10 renal
Assay: NCI-60 cell line screen, 48 h

Point of comparison: C[n+]1cn(C2=C([O-])c3ccccc3C(=O)/C2=N\S(=O)(=O)c2ccccc2)c2ccccc21, TGI 70.5 µM. Against it:
- Cc1nn(C(=O)c2ccccc2O)c2c1C(c1ccccc1O)SC(N)=N2 (stereo unspecified) — not separable, > 10 µM
- O=C1NN=C2C=C(c3ccc(Cl)cc3)CC(c3cccc(Br)c3)C12 (stereo unspecified) — higher, > 100 µM
- COC(=O)C1(NC(=O)C(CC(=O)OCc2ccccc2)NC(=O)OCc2ccccc2)CCCCCCC1 (stereo unspecified) — higher, > 100 µM
- C=CCSc1nc2c(N)ncnc2n1C1OC(CO)C(O)C1O (stereo unspecified) — higher, > 100 µM

Tested on: U251 CNS
Assay: NCI-60 cell line screen, 48 h

Point of comparison: C[n+]1cn(C2=C([O-])c3ccccc3C(=O)/C2=N\S(=O)(=O)c2ccccc2)c2ccccc21, TGI 50.7 µM. Against it:
- Cc1nn(C(=O)c2ccccc2O)c2c1C(c1ccccc1O)SC(N)=N2 (stereo unspecified) — not separable, > 10 µM
- O=C1NN=C2C=C(c3ccc(Cl)cc3)CC(c3cccc(Br)c3)C12 (stereo unspecified) — higher, > 100 µM
- COC(=O)C1(NC(=O)C(CC(=O)OCc2ccccc2)NC(=O)OCc2ccccc2)CCCCCCC1 (stereo unspecified) — higher, > 100 µM
- C=CCSc1nc2c(N)ncnc2n1C1OC(CO)C(O)C1O (stereo unspecified) — higher, > 100 µM

Tested on: UACC-257 melanoma
Assay: NCI-60 cell line screen, 48 h

Point of comparison: C[n+]1cn(C2=C([O-])c3ccccc3C(=O)/C2=N\S(=O)(=O)c2ccccc2)c2ccccc21, TGI 76.6 µM. Against it:
- Cc1nn(C(=O)c2ccccc2O)c2c1C(c1ccccc1O)SC(N)=N2 (stereo unspecified) — not separable, > 10 µM
- O=C1NN=C2C=C(c3ccc(Cl)cc3)CC(c3cccc(Br)c3)C12 (stereo unspecified) — within 1.5-fold, 67 µM
- C=CCSc1nc2c(N)ncnc2n1C1OC(CO)C(O)C1O (stereo unspecified) — higher, > 100 µM

Tested on: UACC-62 melanoma
Assay: NCI-60 cell line screen, 48 h

Point of comparison: COC(=O)C1(NC(=O)C(CC(=O)OCc2ccccc2)NC(=O)OCc2ccccc2)CCCCCCC1 (stereo unspecified), TGI 63.2 µM. Against it:
- C[n+]1cn(C2=C([O-])c3ccccc3C(=O)/C2=N\S(=O)(=O)c2ccccc2)c2ccccc21 — within 1.5-fold, 45.6 µM
- Cc1nn(C(=O)c2ccccc2O)c2c1C(c1ccccc1O)SC(N)=N2 (stereo unspecified) — not separable, > 10 µM
- O=C1NN=C2C=C(c3ccc(Cl)cc3)CC(c3cccc(Br)c3)C12 (stereo unspecified) — higher, > 100 µM
- C=CCSc1nc2c(N)ncnc2n1C1OC(CO)C(O)C1O (stereo unspecified) — higher, > 100 µM

Tested on: UO-31 renal
Assay: NCI-60 cell line screen, 48 h

C[n+]1cn(C2=C([O-])c3ccccc3C(=O)/C2=N\S(=O)(=O)c2ccccc2)c2ccccc21 and O=C1NN=C2C=C(c3ccc(Cl)cc3)CC(c3cccc(Br)c3)C12 (stereo unspecified) cannot be ordered by TGI: > 100 µM for the first, > 100 µM for the second.

COC(=O)C1(NC(=O)C(CC(=O)OCc2ccccc2)NC(=O)OCc2ccccc2)CCCCCCC1 (stereo unspecified) and C=CCSc1nc2c(N)ncnc2n1C1OC(CO)C(O)C1O (stereo unspecified) cannot be ordered by TGI: > 100 µM for the first, > 100 µM for the second.
